US10494404B2, “Quinolinium conjugates of cyclosporin” (priority 2014, dated 2019)

Assays:
[1] = system: Ca^2+ mediated PT pore formation (CypD KO mitochondria); assay: Calcium retention capacity (CRC) assay, liver mitochondria from CypD knockout mice; type: biochemical, mouse
Description: Subcellular fractionation was performed as previously described (Astin et al, 2013). […] At 4° C., the liver was rinsed in PBS to remove excess blood, and any fat and connective tissue was eliminated. PBS was then replaced with isolation buffer containing 1 mM PMSF, and the liver was chopped into pieces (approximately 2 mm in length). Tissue was then homogenized in this solution until no solid matter remained, and then centrifuged at 800G for 10 minutes at 4° C. The nuclear pellet was then discarded, and the post nuclear supernatant retained, and centrifuged at 10300G for another 10 minutes at 4° C. […] Protein levels were quantified using a ThermoScientific BCA protein quantification assay, as per manufacturer's instructions.
Isolated mitochondria were resuspended (500 μg protein/ml) in MSK buffer (75 mM mannitol, 25 mM sucrose, 5 mM potassium phosphate monobasic, 20 mM Tris-HCl, 100 mM KCl, and 0.1% bovine serum albumin, pH 7.4) supplemented with 10 mM succinate, 1 μM rotenone and 1 μM Fluo5N. […] Compounds were incubated for ten minutes before the plate was assayed in a Fluostar Optima plate reader, using Ex/Em filters at 480/520 […]; CaCl2 was injected approximately every 6.5 minutes for 80 minutes (12 total injections, final concentration of 75 μM). […] Percentage inhibition for each [compound] was then calculated as the % of the corresponding value for the untreated condition. […]

[2] = system: DIV 8-9 rat cortical neurons; assay: Mitochondrial functional parameters in DIV 8-9 rat cultured cortical neurons; type: cell-based; conditions: Compound 1 up to 200 nM, CsA up to 1 μM
Description: The minimum value after the addition of compound (prior to the addition of FCCP) was taken, and this was expressed as a % (using baseline as 100% and FCCP as 0%), and then normalized to DMSO (100%). Significance was assessed by one-way ANOVA, in comparison to DMSO control.
Freshly isolated mitochondria were resuspended in MSK buffer (containing 10 mM glutamate and 2 mM malate) at 1 mg/ml and plated in opaque white 96 well plates, or for neuronal assays, neurons were used 9 days after plating at 15000 cells/well. Drugs were added at the concentrations specified, and for mitochondrial assays were incubated for ten minutes before addition of ADP (5 mM), followed by another 45 minutes. For neuronal assays, drugs were added in neurobasal medium and incubated for 60 minutes. Cell Titer Glo reagent was then added, and the plate shaken for 2 minutes in the dark to lyse cells/mitochondria and release ATP. The plates were incubated a further ten minutes and then luminescence values read using an Optima FluoStar.

`CC[C@@H]1NC(=O)[C@H]([C@H](O)[C@H](C)C/C=C/CCC[n+]2cccc3ccccc32)N(C)C(=O)[C@H](C(C)C)N(C)C(=O)[C@H](CC(C)C)N(C)C(=O)[C@H](CC(C)C)N(C)C(=O)[C@@H](C)NC(=O)[C@H](C)NC(=O)[C@H](CC(C)C)N(C)C(=O)[C@H](C(C)C)NC(=O)[C@H](CC(C)C)N(C)C(=O)CN(C)C1=O` [Compound 1, [Gly-(1S,2R,E)-8-quinolinium-1-hydroxy-2-methyloct-4-ene]^1 CsA] was tested. Which “effect on CRC” value [1] did it give?
Its value is “Neither CsA nor Compound 1 had any effect”.

And the mitochondrial membrane potential ([2]; TMRM)?
Its mitochondrial membrane potential is “Neither mitochondrial membrane potential (FIG. 4A,B), oxygen consumption (FIG. 4C, D) and ATP production (FIG. 4E, F) were affected”.

What about the “ATP levels / ATP production” value ([2]; luciferase assay) of the same compound?
Its value is “Neither mitochondrial membrane potential (FIG. 4A,B), oxygen consumption (FIG. 4C, D) and ATP production (FIG. 4E, F) were affected”.
